According to patent US12239643B2, “Therapeutic agent for inflammatory diseases, autoimmune diseases, fibrotic diseases, and cancer diseases” (MEIJI SEIKA PHARMA CO., LTD., priority 2018, dated 2025):
Read-outs that look alike come from different tables or passages of the source.

Assays:
[1] = system: PDE4; assay: Evaluation of PDE4 inhibitory activity, scintillation proximity assay; type: biochemical; details: for PDE4 inhibitory activity: summary in words of Tables 57 to 69
Outline: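 IC50 was derived from inhibition curves, referenced to an enzyme-free blank and a DMSO-only control. Compound, PDE4 preparation and tritiated cAMP reacted 120 min at RT in Tris-HCl buffer (pH 7.4) with MgCl2, EGTA and BSA; YSi-SPA beads with ZnSO4 bound product before scintillation counting.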

[2] = Hepatic metabolic stability (rat liver microsome method); type: in vitro ADME; details: rat liver microsomes 0.5 mg/mL, test substance 1 μM, NADPH 1 mM, 37° C., 30 minutes
Outline: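 Scored by % parent left after 30 min (30 min/0 min ×100, LC-MS), banded A ≥75%, B 60–<75%, C 45–<60%, D <45%. Incubation: 1 μM compound, 0.5 mg/mL rat microsomes, pH 7.4 phosphate buffer, 37° C, 5 min preincubation, NADPH 1 mM started, acetonitrile quench.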

[3] = system: TGF-β; assay: TGF-β inhibitory activity using THP1 cells differentiated into macrophages; type: cell-based; details: Homo sapiens, THP-1; THP1 cells differentiated into macrophages, lipopolysaccharide 1 μg/mL, about 7 hours; read-out: TFG-β Inhibitory Activity (Test Example 6)
Experimental: The TGF-β inhibitory activity was measured using THP1 cells as follows. First, THP1 cells were seeded on a 24-well culture plate at […], and culture was carried out overnight at 37° C. and 5% CO2 in RPMI-1640 medium (containing 10% fetal bovine serum, penicillin, and streptomycin) supplemented with 100 nM phorbol myristate acetate. After that, the cells were differentiated into macrophages by changing to RPMI-1640 medium without phorbol myristate acetate, followed by further culture at 37° C. under 5% CO2 overnight. Next, the THP1 culture plate was washed once with PBS(−) 1 mL/well, and then the test compound and lipopolysaccharide (final concentration 1 μg/mL) were added, followed by culture at 37° C. under 5% CO2 for about 7 hours. After culturing, the entire amount of the medium was collected, and the amount of TGF-β in the centrifuged supernatant was quantified by the sandwich ELISA method. The non-addition of lipopolysaccharide was used as a blank, and the control was obtained by adding only dimethyl sulfoxide instead of the test compound, and the inhibition rate of the test compound against the control was calculated by the following formula. Inhibition Rate (%)={1−(Value at Addition of Each Test Compound−Blank Value)/(Control Value−Blank Value)}×100
In addition, the TGF-β inhibitory activity (concentration for the inhibition rate of 50%) of the test compound was calculated from the inhibition curves based on the inhibition rate for various concentrations of the test compound.
The measurement results obtained by measuring the TFG-β inhibitory activity (50% inhibitory concentration) of the test compounds by the above method were evaluated in accordance with the following evaluated basis; A: less than 1 μM, and B: 1 μM or more.

[4] = system: TNFα; assay: Cytokine suppression using whole human blood: TNFα (lipopolysaccharide stimulus); type: cell-based; details: Homo sapiens, human whole blood; read-out: TNFα Inhibitory Activity, Human Whole Blood (Test Example 3)
Experimental: The test compound dissolved in dimethyl sulfoxide was added to a 96-well plate, and RPMI-1640 medium and human peripheral blood containing sodium heparin were added, followed by culture at 37° C. under 5% CO2 for 1 hour. A medium containing only dimethyl sulfoxide instead of the test compound was added to the control well. To each well, lipopolysaccharide (final concentration 10 ng/mL) as a TNFα production stimulant, or phytohaemagglutinin (final concentration 20 μg/mL) as an IL-17A production stimulant, or CytoStim reagent ( 1/100 concentration) and CD28 antibody (final concentration 2.5 ng/mL) as an IL-4 production stimulant and an IL-5 production stimulant were added, followed by culture at 37° C. under 5% CO2. The culture was carried out for about 18 hours for the evaluation of the amount of TNFα, and for about 48 hours for the evaluation of the amounts of IL-17A, IL-4, and IL-5.
After collecting the culture supernatant after culturing, the amount of each cytokine was measured by the sandwich ELISA method. The cytokine production suppression rate (inhibition rate) by the test compound was calculated by the following formula from the cytokine production amount when the test compound was added, with the cytokine production amount for the control well as 100%. Inhibition Rate={1−(Cytokine Amount at Addition of Each Test Compound)/(Cytokine Amount for Control Well)}×100
In addition, the cytokine inhibitory activity (concentration for the inhibition rate of 50%) of the test compound was calculated from the inhibition curves based on the inhibition rates for various concentrations of the test compound.
The measurement results obtained by measuring the TNFα inhibitory activity and IL-5 inhibitory activity (50% inhibitory concentration) of the test compounds by the above method were evaluated in accordance with the following evaluated basis; A: less than 100 nM, B: 100 nM or more and less than 500 nM, and C: 500 nM or more. In addition, the measurement results obtained by measuring the IL-17A inhibitory activity and IL-4 inhibitory activity (50% inhibitory concentration) of the test compounds were evaluated in accordance with the following evaluated basis; A: less than 500 nM, B: 500 nM or more and less than 5000 nM, and C: 5000 nM or more.

[5] = system: oxazolone-induced auricle edema, BALB/c mice; assay: Hapten repeated application mouse chronic dermatitis model (oral, topical); type: in vivo; details: oral, 0.3 to 10 mg/kg twice a day for 10 days
Experimental: Evaluation was carried out using female BALB/c mice (7 to 8 weeks of age). First, the hair of the abdomen of the mice was treated with a hair clipper, and then 150 μL of a 3% oxazolone acetone/ethanol solution was applied to the abdomen as a hapten. One week later, 20 μL/ear of 1% oxazolone acetone/ethanol solution was applied to the outer surface of the auricle of both ears of the mice 3 times/week to induce inflammation. A 1% oxazolone-acetone/ethanol solution was applied every other day for 10 days from 1 week after the start of inflammation induction. In addition, for 10 days from 1 week after the start of inflammation induction, the test compound suspended in 0.5% w/v methylcellulose (0.5% MC) was orally administered at 0.3 to 10 mg/kg twice a day (10 μL/g), or 20 μL of a 0.3 to 3% test compound dissolved in an acetone/ethanol solution was applied once or twice a day (topical administration). A 1% oxazolone was not applied to the blank. The control was one in which 1% oxazolone was applied and only 0.5% MC was orally administered without using the test compound, or only an acetone/ethanol solution was applied.
After administration for 10 days, auricle thickness was measured using a dial thickness gauge, and the changes in auricular thickness before the treatment (immediately before the start of administration of the test compound) and after the treatment (after the administration of the test compound for 10 days) were used to calculate the edema suppression rate by the following formula. Edema Suppression Rate (%)={1−(Auricle Thickness After Treatment by Test Compound−Auricle Thickness Before Treatment by Test Compound)/(Auricle Thickness After Treatment of Control−Auricle Thickness Before Treatment of Control)}×100
The measurement results obtained by measuring the edema suppression rate at the time of oral administration of each test compound by the above method were evaluated in accordance with the following evaluated basis; A: 70% or more, B: 40% or more and less than 70%, and C: less than 40%. In addition, the measurement results obtained by measuring the edema suppression rate at the time of topical administration of each test compound were evaluated in accordance with the following evaluated basis; A: 100% or more, B: 70% or more and less than 100%, and C: less than 70%.

[6] = finer grading of compounds rated A in Evaluation 1, read-out: PDE4 Inhibitory Activity (Evaluation 2)
[7] = scintillation proximity assay, class symbols of Evaluation 1, read-out: PDE4 Inhibitory Activity (concentration for the inhibition rate of 50%, IC50), Evaluation 1
[8] = scintillation proximity assay, read-out: PDE4 Inhibitory Activity (Evaluation 1; concentration for the inhibition rate of 50%)

With `FC(F)(F)Oc1c(Cl)cc(-c2nccs2)c2oc(N3CC4CC(C3)N4)nc12` [Example 3, 2-(3,6-Diazabicyclo[3.1.1]heptan-3-yl)-5-chloro-7-(thiazol-2-yl)-4-(trifluoromethoxy)benzo[d]oxazole] the IC50 [1, 6] was ≤ 0.001 µM, the IC50 [1, 7] was < 0.1 µM and the PDE4 inhibitory activity [1] was “particularly excellent”. For the same molecule, the “Residual ratio (% remaining for 30-minute reaction)” value [2] was “B (B: 60% or more and less than 75%)” and the IC50 [3] was < 1 µM.
In the case of `FC(F)(F)Oc1c(Cl)cc(-c2nccs2)c2oc(N3CC4COCC(C3)N4)nc12` [Example 4, 7-(5-Chloro-7-(thiazol-2-yl)-4-(trifluoromethoxy)benzo[d]oxazol-2-yl)-3-oxa-7,9-diazabicyclo[3.3.1]nonane], the IC50 [1, 6] is reported as 0.001 to 0.011 µM, the IC50 [1, 7] is reported as < 0.1 µM and the PDE4 inhibitory activity [1] is reported as “particularly excellent”. The IC50 [3] was < 1 µM.
For `Cc1ccc(-c2nccs2)c2oc(N3CC4CCC(C3)N4)nc12` [Example 25, 2-(3,8-Diazabicyclo[3.2.1]octan-3-yl)-4-methyl-7-(thiazol-2-yl)benzo[d]oxazole], the IC50 [1, 6] was ≤ 0.001 µM, the IC50 [1, 7] was < 0.1 µM and the PDE4 inhibitory activity [1] was “particularly excellent”. The IC50 [3] was < 1 µM.
With `FC(F)(F)Oc1ccc(-c2nccs2)c2oc(N3CC4CCCC(C3)N4)nc12` [Example 30, 2-(3,9-Diazabicyclo[3.3.1]nonan-3-yl)-7-(thiazol-2-yl)-4-(trifluoromethoxy)benzo[d]oxazole] the IC50 [1, 6] was ≤ 0.001 µM, the IC50 [1, 7] was < 0.1 µM and the PDE4 inhibitory activity [1] was “particularly excellent”. The IC50 [3] was < 1 µM.
For `FC(F)(F)c1ccc(-c2nccs2)c2oc(N3CC4CC(C3)N4)nc12` [Example 32, 2-(3,6-Diazabicyclo[3.1.1]heptan-3-yl)-7-(thiazol-2-yl)-4-(trifluoromethyl)benzo[d]oxazole], the IC50 [1, 6] was 0.001 to 0.011 µM, the IC50 [1, 7] was < 0.1 µM and the PDE4 inhibitory activity [1] was “particularly excellent”. For the same molecule, the IC50 [3] was < 1 µM.
In the case of `COc1ccc(-c2nccs2)c2oc(N3CC4CCC(C3)N4)nc12` [Example 75, 2-(3,8-Diazabicyclo[3.2.1]octan-3-yl)-4-methoxy-7-(thiazol-2-yl)benzo[d]oxazole], the IC50 [1, 6] is reported as 0.001 to 0.011 µM, the IC50 [1, 7] is reported as < 0.1 µM and the PDE4 inhibitory activity [1] is reported as “particularly excellent”. For the same molecule, the IC50 [3] was < 1 µM.
In the case of `OC(c1ccc(-c2nccs2)c2oc(N3CC4CCC(C3)N4)nc12)C(F)(F)F` (centres unmarked) [Example 118, 1-(2-(3,8-Diazabicyclo[3.2.1]octan-3-yl)-7-(thiazol-2-yl)benzo[d]oxazol-4-yl)-2,2,2-trifluoroethan-1-ol], the IC50 [1, 6] is reported as 0.001 to 0.011 µM, the IC50 [1, 7] is reported as < 0.1 µM and the PDE4 inhibitory activity [1] is reported as “particularly excellent”. For the same molecule, the IC50 [4] was 0.1 to 0.5 µM and the “Mouse Chronic Dermatitis Model (Test Example 8), Oral: edema suppression rate” value (“Mouse Chronic Dermatitis Model” below) [5] was “B (B: 40% or more and less than 70%)”.
For `OC(c1ccc(-c2nccs2)c2oc(N3CC4CC(C3)N4)nc12)C(F)(F)F` (centres unmarked) [Example 120, 1-(2-(3,6-Diazabicyclo[3.1.1]heptan-3-yl)-7-(thiazol-2-yl)benzo[d]oxazol-4-yl)-2,2,2-trifluoroethan-1-ol], the IC50 [1, 6] was 0.001 to 0.011 µM, the IC50 [1, 7] was < 0.1 µM and the PDE4 inhibitory activity [1] was “particularly excellent”. For the same molecule, the IC50 [3] was < 1 µM and the “Mouse Chronic Dermatitis Model” value [5] was “B (B: 40% or more and less than 70%)”.
With `CC(C)(O)c1cc(-c2nccs2)c2oc(N3CC4CCC(C3)N4)nc2c1C(F)(F)F` [Example 177, 2-(2-(3,8-Diazabicyclo[3.2.1]octan-3-yl)-7-(thiazol-2-yl)-4-(trifluoromethyl)benzo[d]oxazol-5-yl)propan-2-ol] the IC50 [1, 6] was 0.001 to 0.011 µM, the IC50 [1, 7] was < 0.1 µM and the PDE4 inhibitory activity [1] was “particularly excellent”. For the same molecule, the IC50 [3] was < 1 µM.
In the case of `COC(C)(C)c1cc(-c2nccs2)c2oc(N3CC4CCC(C3)N4)nc2c1OC(F)(F)F` [Example 198, 2-(3,8-Diazabicyclo[3.2.1]octan-3-yl)-5-(2-methoxypropan-2-yl)-7-(thiazol-2-yl)-4-(trifluoromethoxy)benzo[d]oxazole], the IC50 [1, 6] is reported as ≤ 0.001 µM, the IC50 [1, 8] is reported as < 0.1 µM and the PDE4 inhibitory activity [1] is reported as “particularly excellent”. For the same molecule, the IC50 [4] was 0.1 to 0.5 µM.
In the case of `COC(C)(C)c1cc(-c2nccs2)c2oc(N3CC4CC(C3)N4)nc2c1OC(F)(F)F` [Example 199, 2-(3,6-Diazabicyclo[3.1.1]heptan-3-yl)-5-(2-methoxypropan-2-yl)-7-(thiazol-2-yl)-4-(trifluoromethoxy)benzo[d]oxazole], the IC50 [1, 6] is reported as 0.001 to 0.011 µM, the IC50 [1, 8] is reported as < 0.1 µM and the PDE4 inhibitory activity [1] is reported as “particularly excellent”. The IC50 [3] was < 1 µM and the “Mouse Chronic Dermatitis Model” value [5] was “B (B: 40% or more and less than 70%)”.
For `CC(O)c1cc(-c2nccs2)c2oc(N3CC4CC(C3)N4)nc2c1OC(F)(F)F` (centres unmarked) [Example 203, 1-(2-(3,6-Diazabicyclo[3.1.1]heptan-3-yl)-7-(thiazol-2-yl)-4-(trifluoromethoxy)benzo[d]oxazol-5-yl)ethan-1-ol], the IC50 [1, 6] was 0.001 to 0.011 µM, the IC50 [1, 8] was < 0.1 µM and the PDE4 inhibitory activity [1] was “particularly excellent”. For the same molecule, the IC50 [3] was < 1 µM and the “Mouse Chronic Dermatitis Model” value [5] was “B (B: 40% or more and less than 70%)”.
